Measured values as given in US8772268B2, “Bisphosphonamidate prodrugs and uses thereof” (The Johns Hopkins University, priority 2010, dated 2014).
Values joined by “and” are separate entries in the source; they are usually repeats but may differ in a detail not shown here. Equal entries are not always repeated. Where two headings read alike, the source gives them in different places.

Experiments:
A549 NSCLC cells [1] = assay: MTS cell proliferation assay, A549; assay type: cell-based; conditions: for EC50: Homo sapiens, A549 (NSCLC), MTS, table of Example 3; for IC50: A549, MTS, read-out: IC50 (decreased cell proliferation by 50% compared to control); for growth inhibitory effect against A549 cells: concentrations up to 1 mM
Experimental: Cell proliferation was determined using the CellTiter 96 Aqueous One Solution Cell Proliferation Assay MTS assay. A549 NSCLC cells were plated at 1.5×10^3 cells per well in flat bottom 96 well plates in 99 μL of media and allowed to adhere overnight. The drugs were serially diluted in 100% DMSO. For each drug treatment group, 1 μL of a 100× stock solution was added to each well for a final DMSO concentration of 1%. Cells were treated for 24, 48 or 72 hours. Cells were incubated with MTS dye (20 μL well^−1) for 40 min to 2 h. Absorbance at 490 nm was determined using a SpectraMax M2 (Molecular Devices) plate reader. The percent cell proliferation was calculated by converting the experimental absorbance to percentage of control, which was then plotted vs. drug concentration. The IC50 values were determined using a non-linear dose-response analysis in GraphPad Prism version 4.0. The IC50 is defined as the concentration of drug needed to cause a 50% decrease in proliferation compared to vehicle control. […]

[2] = tested on: PIP3 (prostate) cancer cell line; assay: MTS cell proliferation assay, PIP3; assay type: cell-based
Experimental: (§1) Cell proliferation was determined using the CellTiter 96 Aqueous One Solution Cell Proliferation Assay MTS assay. A549 NSCLC cells were plated at 1.5×10^3 cells per well in flat bottom 96 well plates in 99 μL of media and allowed to adhere overnight. The drugs were serially diluted in 100% DMSO. For each drug treatment group, 1 μL of a 100× stock solution was added to each well for a final DMSO concentration of 1%. Cells were treated for 24, 48 or 72 hours. Cells were incubated with MTS dye (20 μL well^−1) for 40 min to 2 h. Absorbance at 490 nm was determined using a SpectraMax M2 (Molecular Devices) plate reader. The percent cell proliferation was calculated by converting the experimental absorbance to percentage of control, which was then plotted vs. drug concentration. The IC50 values were determined using a non-linear dose-response analysis in GraphPad Prism version 4.0. The IC50 is defined as the concentration of drug needed to cause a 50% decrease in proliferation compared to vehicle control.
(§2) The activity of Clodronate prodrug (14) was tested against other cell lines, include prostate (PIP3) and breast (MDA-MB-453) cancer cells lines. Cell proliferation was determined using the CellTiter 96 Aqueous One Solution Cell Proliferation Assay MTS assay as discussed above. Results are shown in FIG. 22 and in the table below.

[3] = tested on: MDA-MB-453 (breast) cancer cell line; assay: MTS cell proliferation assay, MDA-MB-453; assay type: cell-based; conditions: Homo sapiens
Experimental: as §1, §2

A549 = assay: Cyclized zoledronate intermediate vs zoledronic acid, normoxia/hypoxia, A549; assay type: cell-based; conditions: Homo sapiens
H358 = assay: Cyclized zoledronate intermediate vs zoledronic acid, normoxia/hypoxia, H358; assay type: cell-based; conditions: Homo sapiens
[4] = tested on: several cancer cell lines; conditions: cited from earlier work
P. falciparum (NF54) = assay: Antimalarial [3H]-hypoxanthine incorporation assay; assay type: cell-based, Plasmodium falciparum
Experimental: Plasmodium falciparum culture. NF54 P. falciparum parasites were maintained in O+ positive erythrocytes (obtained weekly from a rotating pool of screened healthy donors) in complete medium containing RPMI (Sigma), 25 mM N-2-hydroxyethylpiperazine-N′-2-ethanesulfonic acid (HEPES; Sigma), 27 mM sodium bicarbonate (Sigma) and 10% heat-inactivated male O+ serum in non-vented flasks. Hematocrit was maintained at 2.4%. Flasks were gassed with a mixture of 3% oxygen, 4% carbon dioxide, 93% nitrogen. Parasitemia was maintained at 0.1-5% by changing medium and erythrocytes two to three times a week.
Antimalarial activity was measured using a [^3H]-hypoxanthine incorporation assay as described previously (Desjardins et al., Antimicrob. Agents Chemother., vol. 16, p. 710, 1979; Milhous et al., Antimicrob. Agents Chemother., vol. 27, np. 525, 1985). […] For surveys, each concentration was assayed in triplicate while in expansions, each concentration was assayed in quadruplicate. To each well, 0.64 μCi of [^3H]-hypoxanthine (10-30 Ci/mmol; Perkin Elmer) was added and the plate was incubated for an additional 20 to 24 h. Samples from each well were harvested on filter paper and tritium counts were measured on the Beckmann Coulter LS6500 scintillation counter. […] Values considered as outliers according to Chauvenet's criterion were discarded and dropped from analysis. One survey and at least one expansion was performed for each compound.

A549 NSCLC cells [5] = assay: Trypan blue cell count assay, A549; conditions: for EC50: read-out: EC50 (decreased cell number by 50% compared to control)
Experimental: A549 NSCLC cells were plated at 1.7×10^4 cells per well in flat bottom 12-well plates. Cells were dosed as described above. At 24, 48 or 72 hours following drug treatment, the media was collected, and the cells were washed with 200 μL PBS. Each well was trypsinized with 200 μL trypsin for 3-5 min. The trypsin reaction was quenched with an equal volume of media. All supernatants and washes were combined and spun at 1,500 rpm for 5 min. Supernatant was decanted, and the cells were resuspended in 200 μL media. The cells were diluted 1:1 in 0.04% trypan blue and counted using a cytometer. The absolute number of cells was determined at each drug concentration. The cell number for each concentration was converted to percent of control for each time point, and plotted using GraphPad Prism 4.0. The EC50 was calculated as the concentration of drug that caused a 50% decrease in number of cells compared to control.
The number of viable cells at each dose was determined at 0, 24, 48 and 72 hours following drug treatment and plotted as a percent of control (FIG. 6A).

L1210 = assay: Cytotoxicity, L1210; assay type: cell-based
A549 NSCLC cells [6] = assay: Activity of other esters against NSCLC (FIG. 13A-D); assay type: cell-based; conditions: Homo sapiens
Experimental: Cells were dosed as described above. […] The results shown in FIG. 13 are from a single experiment only.
Results are shown in FIG. 13 and in the table below

[7] = tested on: breast and ovarian cancers; conditions: cited from earlier work
lung cancer cell lines = conditions: cited from earlier work
[8] = Plasmodium falciparum, P. falciparum (NF54), read-out: IC50
[9] = A549, 24 h, single experiment, read-out: IC50 24 h
[10] = A549, 48 h, single experiment, read-out: IC50 48 h
[11] = A549, 72 h, single experiment, read-out: IC50 72 h

With O=P(O)(O)C(O)(Cn1ccnc1)P(=O)(O)O [Zoledronate, zoledronate] the EC50 (A549 NSCLC cells [1]) was 58 µM, the EC50 [2] was 78 µM and the EC50 [3] was 191 µM. The IC50 (A549; A549, 48 h, Hypoxia) was 350 µM, the IC50 (A549; A549, 48 h, Normoxia) was 98 µM and the IC50 (A549; A549, 72 h, Hypoxia) was 205 µM. The IC50 (A549; A549, 72 h, Normoxia) was 45 µM, the IC50 (H358; NCI-H358, 48 h, H358, 48 hrs, Hypoxia) was 87 µM and the IC50 (H358; NCI-H358, 48 h, H358, 48 hrs, Normoxia) was 59 µM. The IC50 (H358; NCI-H358, 72 h, H358, 72 hrs, Hypoxia) was 135 µM, the IC50 (H358; NCI-H358, 72 h, H358, 72 hrs, Normoxia) was 15 µM and the IC50 [4] was no less than 3 µM.

Compound CCN(CC)P(=O)(OCc1ccc([N+](=O)[O-])cc1)C(Cl)(Cl)P(=O)(OCc1ccc([N+](=O)[O-])cc1)N(CC)CC (stereo not drawn) [Diethylamine Analog] has an IC50 (P. falciparum (NF54); [8]) of 3.3 µM.

With CN(CCCCCl)P(=O)(CP(=O)(OCc1ccc([N+](=O)[O-])cc1)N(C)CCCCCl)OCc1ccc([N+](=O)[O-])cc1 (stereo not drawn) [compound 13] the IC50 (A549 NSCLC cells [1]; 24 h) was 17 ± 4 µM, the IC50 (A549 NSCLC cells [1]; 48 h) was 15.2 µM and 15 µM and the IC50 (A549 NSCLC cells [1]; 72 h) was 13 ± 1 µM. The “decrease in IC50 of 13 compared to 14” value (A549 NSCLC cells [1]; A549 cells) was 3 fold, the “EC50 (trypan blue) fold higher than IC50 (MTS)” value (A549 NSCLC cells [5]; A549, 48 h) was roughly 3.6 fold and the EC50 (A549 NSCLC cells [5]; A549, trypan blue, 48 h) was 24 ± 4 µM. The EC50 (A549 NSCLC cells [5]; A549, trypan blue, 72 h) was 25 ± 4 µM, the EC50 (A549 NSCLC cells [5]; A549, trypan blue, 72 h, listed as Bisphosphonate Prodrug) was 24 ± 4 µM and the IC50 (P. falciparum (NF54); P. falciparum (NF54), read-out: IC50) was 5.2 ± 0.21 µM. The IC50 (L1210) was 27 µM.

COP(=O)(N(C)CCCCCl)C(Cl)(Cl)P(=O)(OC)N(C)CCCCCl (stereo not drawn) [Methoxy analog] showed an IC50 (P. falciparum (NF54); [8]) of 22 µM, an IC50 (A549 NSCLC cells [6]; [9]) of 93.4 µM and an IC50 (A549 NSCLC cells [6]; [10]) of 100 µM. It also gave an IC50 (A549 NSCLC cells [6]; [11]) of 76.3 µM.

For O=P(O)(O)CP(=O)(O)O [Bisphosphonate, reference compound], the “growth inhibitory effect against A549 cells” value (shortened to “growth inhibitory effect”) (A549 NSCLC cells [1]) was “minimal activity”.

With CN(CCCCCl)P(=O)(OCc1ccccc1)C(Cl)(Cl)P(=O)(OCc1ccccc1)N(C)CCCCCl (stereo not drawn) [Chlorobenzyl analog] the IC50 (P. falciparum (NF54); Plasmodium falciparum, NF54) was 5.9 µM, the IC50 (A549 NSCLC cells [6]; A549, 24 h, read-out: IC50 24 h) was 18.9 µM and the IC50 (A549 NSCLC cells [6]; A549, 48 h, read-out: IC50 48 h) was 11.9 µM. It also gave an IC50 (A549 NSCLC cells [6]; A549, 72 h, read-out: IC50 72 h) of 11.6 µM.

In the case of CN(CCCCCl)P(=O)(CP(=O)(OCc1ccccc1)N(C)CCCCCl)OCc1ccccc1 (stereo not drawn) [Deschlorobenzyl Analog], the IC50 (A549 NSCLC cells [6]; [9]) is reported as 21.6 µM, the IC50 (A549 NSCLC cells [6]; [10]) is reported as 12.8 µM and the IC50 (A549 NSCLC cells [6]; [11]) is reported as 7.8 µM.

For O=P(O)(O)C(Cl)(Cl)P(=O)(O)O [Clodronate, clodronate, reference compound], the EC50 (A549 NSCLC cells [1]) was greater than 1000 µM, the “growth inhibitory effect” value (A549 NSCLC cells [1]) was “minimal activity” and the “growth inhibitory effect” value (A549 NSCLC cells [1]; listed as clodronate) was “does not exhibit a detectable growth inhibitory effect”. For the same compound, the EC50 [2] was greater than 1000 µM, the EC50 [3] was greater than 1000 µM and the IC50 (P. falciparum (NF54); [8]) was 750 µM. The IC50 (L1210; Mus musculus) was 830 µM, the growth inhibition [7] was “high micromolar or low millimolar range” and the “activity against lung cancer cell lines” value (lung cancer cell lines) was “minimal activity”.

Work on CN(CCCCCl)P(=O)(OCCc1ccc([N+](=O)[O-])cc1)C(Cl)(Cl)P(=O)(OCCc1ccc([N+](=O)[O-])cc1)N(C)CCCCCl (stereo not drawn) [Nitrophenethyl analog] yielded an EC50 (A549 NSCLC cells [5]; Homo sapiens, A549, 24 h) of roughly 10 µM, an EC50 (A549 NSCLC cells [5]; Homo sapiens, A549, 48 h) of 3.5 µM and an EC50 (A549 NSCLC cells [5]; Homo sapiens, A549, 72 h) of 4.2 µM. It also gave an IC50 (P. falciparum (NF54); [8]) of 0.97 ± 0.21 µM, an IC50 (A549 NSCLC cells [6]; [9]) of 4.8 µM and an IC50 (A549 NSCLC cells [6]; [10]) of 3.1 µM. For the same compound, the IC50 (A549 NSCLC cells [6]; [11]) was 2.1 µM.
